The source of these data is patent US10016498B2, “D-amino acid derivative-modified peptidoglycan and methods of use thereof” (priority 2012, dated 2018).

In experiment [1] the test system is L. monocytogenes PG. Nature of the experiment: alkDala labeling of newly synthesized PG: growth phase, vancomycin-BODIPY colocalization, antibiotic treatment. The experiment is classed as cell-based.
In the next experiment the test system is L. monocytogenes. The experiment is classed as cell-based.
Experiment [2] deals with bacteria (E. coli, Bacillus subtilis, L. monocytogenes, Mycobacterium tuberculosis, Streptomyces coelicolor, Corynebacterium glutamicum). The experiment is classed as cell-based.
Experiment [3] has as its system peptidoglycan of gram-positive bacteria. Kind of experiment: Incorporation of cyclooctyne D-amino acids into peptidoglycan, azido-PEG3-carboxyrhodamine labeling, flow cytometry and microscopy. It is filed as cell-based, L. monocytogenes. The procedure:
With all three amino acids in hand, their incorporation into the peptidoglycan of gram-positive bacteria was tested. The bacteria were grown for one-doubling time in the presence of 5 mM unnatural amino acids 30 to 32. The cells were then washed to remove excess amino acid and labeled with 20 μM of the commercially available azido-PEG3-carboxyrhodamine. This fluorophore efficiently labels terminal-alkyne-tagged peptidoglycan under copper-click conditions. The cells were then washed to remove excess probe, fixed, and studied by flow-cytometry and microscopy.
To further confirm that peptidoglycan was being labeled, a competition experiment was performed.
For orientation: Flow cytometry measures light scatter and fluorescence of single cells or particles in a stream.

Experiment [4] deals with L. monocytogenes PG. Nature of the experiment: HPLC and mass spectrometry of muropeptides from purified PG. It is filed as cell-based. An excerpt:
Having ruled out other potential sites of D-alanine derivative labeling, direct evidence of its incorporation into PG was sought. PG comprises a repeating disaccharide to which is conjugated a short peptide, termed the stem peptide (FIG. 1A). Although newly synthesized PG stem peptide usually terminates in D-alanine-D-alanine, diverse bacterial phyla produce and incorporate D-amino acids other than D-alanine into those positions. (17, 18) The process is flexible; various natural and unnatural D-amino acids appear to incorporate, albeit at varying efficiencies. […] After digesting the PG with muramidase, HPLC was used to detect muropeptides by absorbance at either 204 nm (to visualize all species) or 500 nm (to identify fluorophore-containing fragments). […] PG samples from E. coli incubated in azDala alone were analyzed; and it was determined that the fraction of D-alanine that had been replaced with the synthetic analog was roughly 50% of the tetrapeptide pool and 15% of the total muropeptide population.
FIGS. 2A-D. AlkDala incorporates into L. monocytogenes PG. […] Absorbance at 204 nm, blue, and at 500 nm, red, are shown. […] The most abundant peaks detected at 500 nm were collected and subjected to analysis by mass spectrometry, (D), to identify the chemical structure of the alkDala-containing muropeptides conjugated to azido-fluor 488, (B).

Experiment [5] relates to L. monocytogenes in J774 macrophages. Nature of the experiment: alkDala labeling of intracellular bacteria during J774 macrophage infection. It is filed as cell-based. The settings on record: 50 mM alkDala, azido-fluor 488.
The test system of the next experiment is E. coli PG. The experiment is classed as cell-based, Escherchia coli.

Regarding `C[C@@H]1O[C@@H]1P(=O)(O)O` [fosfomycin], the “effect of antibiotic treatment on alkDala labeling” value (“effect of antibiotic treatment” below) in the experiment with L. monocytogenes PG [1] is given as “completely abrogated”.

In the case of `C[C@@H](O)[C@H]1C(=O)N2C(C(=O)O)=C(S[C@@H]3CN[C@H](C(=O)N(C)C)C3)[C@H](C)[C@H]12` [meropenem], in the experiment with L. monocytogenes PG [1], the “effect of antibiotic treatment” value is “much weaker effect”.

On to `C#CC[C@@H](N)C(=O)O` [alkDala, R-propargylglycine], for which the “labeling of dal- dat- D-alanine auxotroph compared to wildtype” value in the experiment on L. monocytogenes is given as “labeled more strongly”. In addition, in experiment [2], the “cell surface labeling by microscopy” value is on record as “Clear cell surface labeling of all species tested”. Also, in experiment [3], the “labeling of listeria lacking PBP5 versus wild type” value was “enhanced labeling over wild type”. In addition, the “colocalization of signal with vancomycin-BODIPY, a marker of nascent PG” value with L. monocytogenes PG [1] (one generation, azido-fluor 545) is reported as “colocalized”. The “position of insertion in the PG stem peptide” value with L. monocytogenes PG [4] (L. monocytogenes) was “fifth position”; with E. coli PG, “fourth position”. Moreover, the “change of PG structure compared to D-alanine incubation” value in the experiment with L. monocytogenes PG [4] (long periods of incubation) was “did not appreciably change PG structure”. Further, the “site of labeling of intracellular L. monocytogenes” value was “at the septa and poles” in experiment [5] (longer pulse (3.5 hrs)); “labeled more at the septa” in experiment [5] (short pulse (last 30 minutes)).

As for penicillin, the “effect of antibiotic treatment” value with L. monocytogenes PG [1] is reported as “much weaker effect”.
